{"source": "patent USRE49556E1", "about": "“Compounds and compositions as protein kinase inhibitors” (Array BioPharma Inc., priority 2009, dated 2023)", "key": {"SW620 cells": {"test_system": "SW620 cells", "test": "SW620 cell viability assay (Cell Titer Glo)", "format": "cell-based", "details": "9 serial dilutions between 10 and 0.002 μM, without MEK inhibitor", "method": "The present invention also includes combinations of the BRaf inhibitors disclosed in this invention with other agents. In particular, the present invention provides for combinations with MEK1/2 inhibitors. FIG. 1 illustrates that the addition of a MEK small molecule inhibitor can reverse the induced ERK signaling, cell growth and transformation caused by a Raf small molecule inhibitor.\nSW620 cells were seeded in 1640 RPMI+10% FBS at a density of 1500 cells per 96-well in black walled, clear bottom tissue culture treated plates. Test compounds were serially diluted in DMSO then added to the cells (final DMSO concentration of 0.1%) and incubated at 37° C. and 5% CO2 for 4 days. To measure cell viability, cell plates were brought to room temperature, culture media was removed, and 200 µl of Cell Titer-Glo reagent (Promega, kit components mixed as per the manufacturer's protocol then diluted 1:2 with growth media) was added to each well. Plates were shaken for 5 minutes, then incubated at room temperature for 5 minutes, and the luminescence was measured (Trilux, Perkin Elmer)."}, "A375 cells": {"test_system": "A375 cells", "test": "A375 Cellular Proliferation Assay (A375 CP)", "format": "cell-based", "details": "A375-luc cells, 2 days", "method": "A375-luc cells engineered to express luciferase are plated to 384-well white clear bottom plates as 1,500 cells/50 μl/well in DMEM containing 10% FBS. Compounds of the invention dissolved in 100% DMSO at appropriate concentrations are transferred to the cells by a robotic Pin Tool (100 nl). The cells are incubated for 2 days at […], then 25 μl of BrightGlo™ is added to each well and the plates are read by luminescence. The concentration of each compound for 50% inhibition (IC50) was calculated by non-linear regression using XL Fit data analysis software."}, "[1]": {"test": "Liver microsomal clearance assay, human", "format": "in vitro ADME", "details": "extraction ratio, human liver microsomes, 1 μM compound", "method": "(§1) Liver Microsomal Clearance Assay\n(§2) The in vitro microsomal clearance assay is designed to assess potential risks associated with hepatic metabolic stability of compounds. The test compound (1 μM) was incubated with liver microsomes (0.5 mg/mL) from different species (mouse, rat, monkey, dog and human) and NADPH (1 mM) in 100 mM potassium phosphate buffer at 37° C. At specific reaction time points (0, 5, 10 and 30 minutes), reaction aliquots were removed and reactions were terminated by addition of ice cold acetonitrile containing mass spectrometry internal standard. The samples were centrifuged and the supernatants were analyzed by LC-MS/MS. In vitro metabolic half-life (t1/2, min) and intrinsic clearance (CLint, μL/min/mg) are based on the rate and extent of metabolism of the test compound as determined by the disappearance of the parent compound from the reaction mixture. These values may be scaled to predict hepatic metabolic clearance rate (CLh, mL/min/kg) and extraction ratio (ER, expressed as a ratio of the predicted hepatic metabolic clearance to hepatic blood flow in that species). In general, compounds with high predictedCLint or ER in vitro are considered to be at high risk for exposure-limiting metabolism in vivo."}, "[2]": {"test": "Liver microsomal clearance assay, mouse", "format": "in vitro ADME", "details": "extraction ratio, mouse liver microsomes, 1 μM compound", "method": "as §1, §2"}, "[3]": {"test": "In vivo pharmacokinetics assay in mouse", "method": "(§3) Full pharmacokinetics study: Male Balb/c mice (n=3, body weights 22-25 g) or male Wistar rats (n=3, body weights 250-300 g) were administered the test compound intravenously via the lateral tail vein or orally via gavage. […] Six blood samples of 50 μL each were collected serially for 24 h after dosing. The blood samples were centrifuged to separate the plasma. Plasma samples were analyzed and quantified by LC-MS/MS.\nas §3, with “Rapid” for “Full”, “intravenously (IV)” for “intravenously”, “orally (PO)” for “orally”, “Blood” for “The blood”, “and plasma separated and pooled across” for “to separate”, “three animals at each time point per dose route.” for “plasma.”\nFor both full and rapid pharmacokinetics studies, the following parameters were calculated by non-compartmental regression analysis using Winnonlin 5.0 software (Pharsight, Mountain View, Calif., USA): plasma clearance (Cl), plasma maximum concentration (Cmax), plasma area-under-the-concentration-time-curve (AUC0-inf) and percent oral bioavailability (F %)."}}, "data": [{"compound": "COC(=O)N[C@@H](C)CNc1nccc(-c2cn(C(C)C)nc2-c2cc(Cl)cc(NS(C)(=O)=O)c2F)n1", "note": "[Compound 9, Methyl N-[(2S)-1-({4-[3-(5-chloro-2-fluoro-3-methanesulfonamidophenyl)-1-(propan-2-yl)-1H-pyrazol-4-yl]pyrimidin-2-yl}amino)propan-2-yl]carbamate]", "values": [{"measurement": "cellular proliferation (Cell Titer Glo, FIG. 1)", "setting": "SW620 cells", "result": "induction in cellular proliferation"}]}, {"compound": "methyl N-[(2S)-1-[(4-{3-[2-fluoro-3-(propane-1-sulfonamido)phenyl]-1-(propan-2-yl)-1H-pyrazol-4-yl}pyrimidin-2-yl)amino]propan-2-yl]carbamate [Compound 3]", "values": [{"measurement": "IC50", "setting": "A375 cells", "result": 2, "unit": "nM"}, {"measurement": "ER Human", "setting": "[1]", "result": 0.69}, {"measurement": "ER Mouse", "setting": "[2]", "result": 0.85}, {"measurement": "Cmax", "setting": "[3]; PO 5 mg/kg, n = 1", "result": 70, "unit": "nM"}, {"measurement": "PO AUC", "setting": "[3]; PO 5 mg/kg, n = 1", "result": "0.20 (n = 1) hrs*μM"}, {"measurement": "F", "setting": "[3]; PO/IV 5/2 mg/kg, n = 1", "result": "6 (n = 1) %"}, {"measurement": "Cl", "setting": "[3]; plasma clearance, IV 2 mg/kg", "result": "51 (n = 1) mL/min/kg"}]}]}
